Experimental findings from article PMC8456950, “Structure‐Guided Design of G‐Protein‐Coupled Receptor Polypharmacology” (Angewandte Chemie (International Ed. in English), 2021) are described below.

Each structure is given as a SMILES string.

The target of test [1] is T1, Human A2AAR (Homo sapiens, UniProt P29274). The experiment in a line: A2AAR functional assay, inhibition of NECA-elicited cAMP production in CHO-A2A cells. The conditions noted are these: mean±SEM n=3. Set-up: expressed in transfected cells. In kind it is cell-based. As for the experimental part: Functional assays. For the human A2AAR, functional experiments measuring cAMP production were carried out in CHO-A2A cell line. The day before the assay, the cells were seeded on a 96-well culture plate (Falcon 353072). The cells were washed with wash buffer (Dulbecco’s modified eagle’s medium nutrient mixture F-12 ham (Sigma D8062), 25 mM Hepes; pH=7.4). Wash buffer was then replaced by incubation buffer (Dulbecco’s modified eagle’s medium nutrient mixture F-12 ham (Sigma D8062), 25 mM Hepes, 20 µM Rolipram, pH=7.4). The studied compounds wer e added and incubated at 37 °C for 15 min. After incubation, NECA (Sigma E2387) was added in several concentrations and incubated at 37 °C for 15 min. After incubation, the amount of cAMP was determined using the cAMP Biotrak Enzymeimmunoassay (EIA) System Kit (GE Healthcare RPN225). Data were adjusted to non-linear fitting by using Prism V2.1 (GraphPad Inc, Chicago USA). K B values were calculated from the IC50 values obtained for each compound by using the formula:
KB=I C50/(1+([NECA]/EC50 NECA)). […]
On the technique in general: Changes in cAMP serve as a functional read-out for many G protein-coupled receptors.

In test [2] the target is T1, Human A2AAR. The experiment in a line: A2AAR competition binding ([3H]-ZM241385 displacement). The conditions noted are these: for Ki: radioligand displacement, mean±SEM of three experiments in duplicate, read-out: A2AAR binding affinity Ki. Set-up: expressed in transfected cells; host or cells: HeLa-A2AAR cell line (membranes). As for the experimental part: Binding assays. Human A2AAR competition binding experiments were carried out in multiscreen GF/C 96-well plates (Millipore, Madrid, Spain) pretreated with binding buffer (50 mM Tris-HCl, 1 mM EDTA, 10 mM MgCl2, 2 U/ml adenosine deaminase, pH=7.4).
Each well contained 5 µg of membranes from a He l a-A2AAR cell line (protein concentration […]
compound studied. Non-specific binding was determined in the presence of 50 µM NE C A (Sigma E2387). The reaction mixture (200 µl/well) was incubated at 25 °C for 30 min, after which it was filtered and washed four times with 250 µl wash buffer (50 mM Tris -HCl, 1 mM EDTA, 10 mM MgCl 2, pH=7. 4) before measuring in a microplate beta scintillation counter (Microbeta Trilux, PerkinElmer, Madrid, Spain). Three independent experiments were carried out to calculate K i values (n=3). […]

Test [3] deals with T2, Human D2R (Homo sapiens, UniProt P14416).
T2 construct: expressed in transfected cells; host or cells: CHO-D2R #S20 cell line (membranes)
Description: D2R competition binding ([3H]-spiperone displacement). The conditions noted are these: radioligand displacement, mean±SEM of three experiments in duplicate; read-out: D2R binding affinity Ki. The procedure:
Human D2R competition binding experiments w ere carried out in polypropylene 96-well plates. Each well contained 10 µg of membranes from a CHO-D2R #S20 cell line (protein concentration of 3241 µg/ml), 0.4 nM [3H]-spiperone (80. 2 Ci/mmol, 1 mCi/ml, Perkin […]
The reaction mixture (250 µl/well) was incubated at 25°C for 120 min , after which 200 µL was transferred to a GF/C 96 -well plate (Millipore, Madrid, Spain) pretreated with 0. 5% of PEI and treated with binding buffer (50 mM Tris-HCl, 1 mM EDTA, 5 mM MgCl2, 5 mM KCl, 120 mM NaCl, pH=7.4). The […]
samples were filtered and washed four times with 250 µl wash buffer (50 mM Tris-HCl, 0.9% NaCl, pH=7.4) before measuring in a microplate beta scintillation counter (Microbeta Trilux, PerkinElmer, Madrid, Spain). Three independent exp eriments were carried out to calculate Ki values (n=3). […]
Background: In a radioligand displacement assay an active substance lowers the binding of a labelled ligand.

Test [4] deals with T2, Human D2R. Description: D2R functional cAMP (HTRF) assay in CHO-D2 #S20 cells. In kind it is cell-based. The conditions noted are these: for EC50: cAMP HTRF, CHO-D2 cells, forskolin 10 µM, mean±SEM n=3; for Emax: relative to the maximal effect of dopamine. The procedure: KB=I C50/(1+([NECA]/EC50 NECA)).
Functional assays for the human D2R were carried out in a CHO-D2 #S20 cell line. 5,000 cells were seed ed in 30 µl of Opti-ME M (Invitrogen 11058) and 500µM IBMX (Sigma 17018) on a 96-well isoplate (PerkinElmer 6005030). The studied compounds wer e then added and incubated for 10 min at 37 °C with gentle stirring (150 rpm). Then, 10 µM […]
forskolin (Sigma 17018) was added and incubated for 5 min at 37 °C with gentle stirring (150 rpm). Reagents (#CISBIO 62AM4PEC) were added and, after incubation for 60 min at rt with gentle stirring (90 rpm) and protected from light, homogeneous time resolved fluorescence (HTRF, λEx: 320 nm; λEm: 620-665 nm) from each well was measured using a Tecan Infinite M1000 Pro. Data were normalized to the maximum effect of dopamine. EC50 and Ema x values were obtained after fitting the d ata to a four -parameter logistic equatio n using Prism V2. 1 (Graph Pad Inc, Chicago, USA) . […]

Test [5] concerns unilaterally 6-OHDA lesioned rats. Description: Rotation test in unilaterally 6-OHDA lesioned rats (model of Parkinsonism). The conditions noted are these: apomorphine 1 mg/kg IP, 6-OHDA lesioned rats. In kind it is in vivo. As for the experimental part: Evaluation of compound 30 in rodent model of Parkinsonism. Male Sprague Dawley rats (150-200 g) were housed in air-conditioned rooms (12h dark/light cycle) at 20°C and a humidity of 53%. Experiments were performed in agreement with the European Communities Council Directive of 24 November 1986 (86/609/EEC) on the ethical use of animals and were approved by the local ethical committee (Stockholm North Ethical Committee, N105/16). Rats were anesthetized with ketamine (100 mg/kg, IP; Intervet)/xylazine (5 mg/kg, IP; Bayer, Kiel, Germany), pretreated with desipramine (25 mg/kg, IP; Sigma, St Louis, MO, USA)/pargyline (5 mg/kg, IP; Sigma), placed in a stereotaxi c instrument and injected with 6-OHDA (2.5 µl of a 5mg/ml solution; Sigma) into the median forebrain bundle (MFB) of the right hemisphere (AP -2.8 mm, ML -2.0 mm and V -9.0 mm). Two weeks after the unilateral 6-OHDA lesion, rats were injected with apomorphine (1 mg/kg, IP; Sigma) and their contralateral rotations were measured to determine the degree of nigrostriatal denervation. Four weeks after surgery, rats that were divided into two group according to the number of apomorphine-induced rotations. The rats were treated either with DMSO(17%)/saline (n=6) or compound 30 (n=7, 24 mg/kg, IP) dissolved in DMSO(17%)/saline. The number of rotations was calculated automatically with Noldus EthoVision XT11. 5 Software for 30 min following the drug administration. The two […]
groups were then compared by using a Mann-Whitney test. A second set of independent experiments using a new set of rats were carried out using the same protocol to assess the involvement of the D2R in the observed effect. In this case, rats were divided into four groups according to the number of apomorphine-induced rotations. The rats were treated with either DMSO(17%)/saline (n=6), raclopride (n=7, 2mg/kg, IP) dissolved in DMSO(17%)/saline, compound 30 (n=7, 24 mg/kg, IP) dissolved in DMSO(17%)/saline or the combination of raclopride (30 min pretreatment) and compound 30 (n=7). The rotation test was then performed for 30 min. […]

T1 sequence (P29274 whole entry): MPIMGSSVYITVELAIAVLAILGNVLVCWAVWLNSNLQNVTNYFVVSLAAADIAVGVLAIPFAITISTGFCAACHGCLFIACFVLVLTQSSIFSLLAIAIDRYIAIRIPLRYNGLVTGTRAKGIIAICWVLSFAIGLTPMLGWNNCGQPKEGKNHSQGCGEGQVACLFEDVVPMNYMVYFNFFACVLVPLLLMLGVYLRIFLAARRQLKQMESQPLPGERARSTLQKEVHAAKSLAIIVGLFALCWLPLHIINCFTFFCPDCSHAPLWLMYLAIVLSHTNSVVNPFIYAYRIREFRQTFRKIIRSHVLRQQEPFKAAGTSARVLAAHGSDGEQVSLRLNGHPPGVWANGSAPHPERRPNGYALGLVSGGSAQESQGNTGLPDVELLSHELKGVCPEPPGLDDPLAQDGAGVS
T2 sequence (P14416 whole entry): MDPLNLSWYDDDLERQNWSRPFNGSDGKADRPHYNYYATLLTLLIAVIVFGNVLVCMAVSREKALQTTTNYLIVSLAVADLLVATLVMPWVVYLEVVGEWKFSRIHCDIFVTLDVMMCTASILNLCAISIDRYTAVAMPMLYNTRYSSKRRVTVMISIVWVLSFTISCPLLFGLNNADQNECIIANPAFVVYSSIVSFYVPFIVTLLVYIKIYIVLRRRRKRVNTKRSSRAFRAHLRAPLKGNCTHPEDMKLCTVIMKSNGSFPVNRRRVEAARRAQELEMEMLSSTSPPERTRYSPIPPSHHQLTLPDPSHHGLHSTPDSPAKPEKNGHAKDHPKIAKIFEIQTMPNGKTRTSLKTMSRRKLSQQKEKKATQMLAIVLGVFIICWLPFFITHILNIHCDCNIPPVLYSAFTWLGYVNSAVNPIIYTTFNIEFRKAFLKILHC

In turn, `CCCN(CCCCC(=O)Nc1nc2c(OC)ccc(C)c2s1)C1Cc2ccccc2C1` [Compound 29] registered a Kb on Human A2AAR [1] of 1900 ± 700 nM. In addition, the inhibition constant (Ki) – broadly, a measure of affinity in units of concentration, obtained from inhibition or displacement – on Human A2AAR [2] is 460 ± 40 nM. In addition, the Ki on Human D2R [3] is 670 ± 70 nM. Also, at Human D2R [4], the EC50 – broadly, the concentration giving half of the maximal effect – stood at 980 ± 10 nM and the Emax (as a rule, the size of the effect at its maximum, as opposed to the concentration needed) stood at 105 ± 5%.

Consider `CN(CCCCC(=O)Nc1nc2c(Br)cccc2s1)C1Cc2ccccc2C1` [Compound 20], for which, at Human A2AAR [1], the Kb came out at 320 ± 30 nM. In addition, the Ki turned out to be 190 ± 30 nM at Human A2AAR [2] and 340 ± 30 nM on Human D2R [3]. On Human A2AAR [2] (relative to 2), the “improvement of A2AAR affinity over compound 2” value is given as greater than 6 fold. The compound also registered an EC50 at Human D2R [4] of 1500 ± 20 nM. This compound returned an Emax on Human D2R [4] of 62 ± 9%.

Consider `CN1CCc2cccc3c2[C@H]1Cc1ccc(O)c(O)c1-3` [apomorphine, reference compound], for which the “rotational behaviour induced by control D2R agonist” value in test [5] was “contralateral rotational behaviour”.
